Reference: patent US8361765B2, “Enzymic method for the enantioselective reduction of keto compounds” (IEP GmbH, priority 2001, dated 2013)

Columns and labels:
[1] = test system: L. minor alcohol dehydrogenase; experiment: Enzyme stability in organic solvents; assay type: biochemical, Lactobacillus minor; details: for action of the solvent on the alcohol dehydrogenase (in words): Table 7; for Enzyme activity relative to starting value, t = 2 h / Enzyme activity relative to starting value, t = 8 h / Enzyme activity relative to starting value, t = 24 h / Enzyme activity relative to starting value, t = 48 h: room temperature
Procedure: The stability of the enzyme when contacted with organic solvents was studied by diluting L. minor alcohol dehydrogenase 1:100 in the solvent mixtures listed, followed by incubation at room temperature (for organic solvents not miscible with water, the dilution refers to the aqueous phase). Continuous mixing of both phases was ensured (shaker, 200 rpm). 10 μl of the enzyme solution were then used in the standard assay mixture. Here too, the starting value was set to 100% after dilution in the buffer (triethanolamine buffer 100 mM, pH=7.0, 1 mM MgCl2), with all other values being related to this value.

[2] = octanol/water; cited from earlier work
[3] = test system: alcohol dehydrogenase from Lactobacillus minor; experiment: Spectrum of substrates; assay type: biochemical; details: 10 mM keto compound as substrate, 0.19 mM NADPH, pH 7.0; activity with ethyl 4-chloro-3-oxo-butanoate set to 100%
Procedure: Furthermore, substrates other than ethyl 4-chloro-3-oxo-butanoate were also used in the enzymic assay mixture. For this purpose, the following assay mixture was used: • 970 μl of triethanolamine buffer (100 mM, pH=7.0, 1 mM MgCl2 containing 10 mM keto compound) • 20 μl of NADPH (0.19 mM in assay mixture) • 10 μl of enzyme (1:100)
The activity determined with ethyl 4-chloro-3-oxo-butanoate was set to 100% and the enzyme activities of the other substrates were related to this value.

[4] = 20% solvent not miscible with water, two phases shaken 200 rpm
[5] = 10% water-miscible solvent in buffer
[6] = 20% water-miscible solvent in buffer

| Compound | action of the solvent on the alcohol dehydrogenase (in words) [1] | Enzyme activity relative to starting value, t = 2 h [1, 4] [%] | Enzyme activity relative to starting value, t = 8 h [1, 4] [%] | Enzyme activity relative to starting value, t = 24 h [1, 4] [%] | Enzyme activity relative to starting value, t = 48 h [1, 4] [%] | logP [2] | also measured |
| --- | --- | --- | --- | --- | --- | --- | --- |
| CC(C)O [isopropanol] | inactivating action |  |  |  |  |  |  |
| CCCCCCCC [octane] | do not exhibit this stabilizing action | 87 | 47 | 2 | 1 |  |  |
| COC(C)(C)C [tert-butyl methyl ether] |  | 67 | 51 | 38 | 24 | 1.21 |  |
| CCOC(=O)C(=O)CCc1ccccc1 [Ethyl 2-oxo-4-phenylbutyrate] |  |  |  |  |  |  | Activity in % (n = 2) [3]: 62.7 ± 4.8% |
| CCOCC [diethyl ether] |  | 53 | 42 | 37 | 23 | 0.85 |  |
| CCCCCC [hexane] | do not exhibit this stabilizing action | 80 | 39 | 2 | 5 |  |  |
| CC(C)OC(C)C [diisopropyl ether] |  | 100 | 57 | 41 | 29 | 1.55 |  |
| CCCCCCC(C)=O [2-Octanone] |  |  |  |  |  |  | Activity in % (n = 2) [3]: 90.8 ± 1.2% |
| OC[C@@H](O)[C@@H](O)[C@H](O)[C@@H](O)CO [sorbitol] | activating and, respectively, stabilizing action |  |  |  |  |  | Enzyme activity relative to starting value, t = 2 h ([1]; 1M in buffer): 93%; Enzyme activity relative to starting value, t = 8 h ([1]; 1M in buffer): 74%; Enzyme activity relative to starting value, t = 24 h ([1]; 1M in buffer): 60%; Enzyme activity relative to starting value, t = 48 h ([1]; 1M in buffer): 6% |
| OCC(O)CO [glycerol] | activating and, respectively, stabilizing action |  |  |  |  | −3 | Enzyme activity relative to starting value, t = 2 h [1, 5]: 120%; Enzyme activity relative to starting value, t = 8 h [1, 5]: 64%; Enzyme activity relative to starting value, t = 24 h [1, 5]: 62%; Enzyme activity relative to starting value, t = 48 h [1, 5]: 28%; Enzyme activity relative to starting value, t = 2 h [1, 6]: 120%; Enzyme activity relative to starting value, t = 8 h [1, 6]: 100%; Enzyme activity relative to starting value, t = 24 h [1, 6]: 100%; Enzyme activity relative to starting value, t = 48 h [1, 6]: 104% |
| COC(=O)CC(C)=O [Methyl acetoacetate] |  |  |  |  |  |  | Activity in % (n = 2) [3]: 120 ± 7.7% |
| CCOC(=O)CC(=O)CCl [Ethyl 4-chloro-3-oxo-butanoate] |  |  |  |  |  |  | Activity in % (n = 2) [3]: 100% |
| CCOC(C)=O [ethyl acetate] |  | 87 | 50 | 10 | 8 |  |  |
| CCOC(=O)C(C)=O [Ethyl pyruvate] |  |  |  |  |  |  | Activity in % (n = 2) [3]: 192.3 ± 11.5% |
| C[S+](C)[O-] [DMSO, dimethyl sulfoxide] | activating and, respectively, stabilizing action |  |  |  |  |  | Enzyme activity relative to starting value, t = 2 h [1, 5]: 73%; Enzyme activity relative to starting value, t = 8 h [1, 5]: 54%; Enzyme activity relative to starting value, t = 24 h [1, 5]: 60%; Enzyme activity relative to starting value, t = 48 h [1, 5]: 40%; Enzyme activity relative to starting value, t = 2 h [1, 6]: 73%; Enzyme activity relative to starting value, t = 8 h [1, 6]: 54%; Enzyme activity relative to starting value, t = 24 h [1, 6]: 57%; Enzyme activity relative to starting value, t = 48 h [1, 6]: 40% |
| CCCCCCC [heptane] | do not exhibit this stabilizing action | 51 | 49 | 7 | 6 | 4 |  |
| CCCCC [pentane] | do not exhibit this stabilizing action | 74 | 55 | 7 | 6 | 3 |  |
